Data: patent US20260109721A1, “IONIZABLE CATIONIC LIPIDS INCORPORATING SILICON: SYNTHESIS AND LNP FORMULATION” (priority 2023, published 2026)

Experiments:
[1] = LNP size, PDI and zeta potential by Dynamic Light Scattering (Method A); assay type: physicochemical; settings: LNP formulated with the lipid, DLS
In short: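 LNPs formed by microfluidic mixing of ethanolic lipid mix with Luc mRNA in 10 mM citrate pH 4.0, about 12 ml/min total flow at 3:1 ratio. Particle size, PDI and zeta potential then measured by dynamic light scattering.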

[2] = test system: HepG2 cell line; test: In vitro toxicity study on HepG2 cell line (resazurin, viability and IC50); assay type: cell-based, human; settings: resazurin; for Viability (%) at different lipid concentrations, mean: HepG2 cells, 48 h post-treatment, relative to ethanol vehicle controls; for IC50: Homo sapiens, lipid toxicity, HepG2, 48 h post-treatment, 6.25-800 μM, read-out: IC50 value, μM (on HepG2 cell)
In short: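 HepG2 cells (1000/well) were treated after overnight incubation with lipids at 6.25–800 μM for 48 h. Viability was read by resazurin fluorescence (530/580 nm) after 5 h at 37 °C, relative to ethanol vehicle controls. IC50 values came from concentration-response curves.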

| SMILES | PDI [1] | Size (nm) [1] [nm] | Zeta potential (mV) [1] [mV] | Viability (%) at different lipid concentrations, mean ([2]; 6.25 μM lipid) [%] | Viability (%) at different lipid concentrations, mean ([2]; 12.5 μM lipid) [%] | Viability (%) at different lipid concentrations, mean ([2]; 25 μM lipid) [%] | Viability (%) at different lipid concentrations, mean ([2]; 50 μM lipid) [%] | Viability (%) at different lipid concentrations, mean ([2]; 100 μM lipid) [%] | Viability (%) at different lipid concentrations, mean ([2]; 200 μM lipid) [%] | Viability (%) at different lipid concentrations, mean ([2]; 400 μM lipid) [%] | Viability (%) at different lipid concentrations, mean ([2]; 800 μM lipid) [%] | IC50 [2] [µM] |
| --- | --- | --- | --- | --- | --- | --- | --- | --- | --- | --- | --- | --- |
| CCCCCCCC/C=C\CCCCCCCCOC(=O)C(C)(C)CC(OCCCCCCCC/C=C\CCCCCCCC)O[Si](C)(C)OCCCCCCN1CCCCC1CO (stereo not drawn) [Example 89, (Z)-octadec-9-en-1-yl 4-((((6-(2-(hydroxymethyl)piperidin-1-yl)hexyl)oxy)dimethylsilyl)oxy)-2,2-dimethyl-4-(((Z)-octadec-9-en-1-yl)oxy)butanoate] | 0.12 | 97.17 | −10.93 | 101.4 | 97.9 | 97.9 | 102.8 | 108.3 | 106.6 | 99.5 | 91.6 | > 800 |
| CCCCC/C=C\C/C=C\CCCCCCCCOC(CCCCCCC/C=C\C/C=C\CCCCC)O[Si](C)(C)OCCCCCCN(C)Cc1cn(C2[C@H](O)O[C@H](CO)[C@@H](O)[C@@H]2O)nn1 (stereo partly drawn) [Example 68, (4R,5S,6R)-3-(4-((22Z,25Z)-12-((8Z,11Z)-heptadeca-8,11-dien-1-yl)-2,10,10-trimethyl-9,11,13-trioxa-2-aza-10-silahentriaconta-22,25-dien-1-yl)-1H-1,2,3-triazol-1-yl)-6-(hydroxymethyl)tetrahydro-2H-pyran-2,4,5-triol] | 0.081 | 109.9 | −6.380 | 99.4 | 97.7 | 107.3 | 120.2 | 117.6 | 103.6 | 68.1 | 12.3 | 461 |
| CCCCC/C=C\C/C=C\CCCCCCCCOC(CCCCCCC/C=C\C/C=C\CCCCC)O[Si](C)(C)OCCCCCCN1CCN(CCO)CC1 (stereo not drawn) [Example 58, 2-(4-((20Z,23Z)-10-((8Z,11Z)-heptadeca-8,11-dien-1-yl)-8,8-dimethyl-7,9,11-trioxa-8-silanonacosa-20,23-dien-1-yl)piperazin-1-yl)ethan-1-ol] | 0.011 | 160.6 | −11.86 | 104.2 | 97.0 | 102.1 | 101.2 | 104.1 | 101.6 | 40.3 | 3.8 | 375 |
| CCCCCCCC/C=C\CCCCCCCC(OCCC(C)CCCC(C)CCCC(C)CCCC(C)C)O[Si](C)(C)OCCCCCCN(CCO)CCO (stereo not drawn) [Example 75, (Z)-13-(heptadec-8-en-1-yl)-3-(2-hydroxyethyl)-11,11,17,21,25,29-hexamethyl-10,12,14-trioxa-3-aza-11-silatriacontan-1-ol] | 0.18 | 76.35 | −13.40 | 110.3 | 109.2 | 105.7 | 104.5 | 102.8 | 112.9 | 102.4 | 90.2 | > 800 |
| CCCCCCCC/C=C\CCCCCCCCOC(=O)C(C)(C)CC(OCCCCCCCC/C=C\CCCCCCCC)O[Si](C)(C)OCCCCCCN(CCCO)CCCO (stereo not drawn) [Example 88, (Z)-octadec-9-en-1-yl 1-hydroxy-4-(3-hydroxypropyl)-12,12,16,16-tetramethyl-14-(((Z)-octadec-9-en-1-yl)oxy)-11,13-dioxa-4-aza-12-silaheptadecan-17-oate] | 0.21 | 86.51 | −7.76 | 109.1 | 112.0 | 109.5 | 99.6 | 77.4 | 57.3 | 36.6 | 21.0 | 272 |
